The experiment deals with L. (L.) amazonensis LTB0016, VE98MR and VE2000MM promastigotes. Briefly: Plasma membrane potential (ΔΨp), bisoxonol fluorescence. Format: cell-based, Leishmania amazonensis. To be noted: promastigotes of LTB0016, VE98MR, VE2000MM; 15 min; 18: 1 and 2 µM; vs untreated. How it is done:
To evaluate the plasma membrane potential (ΔΨp), the fluorescent compound, bisoxonol, bis[1,3-diethylthiobarbituric acid] trimethine oxonol, was used, as well as a method optimized by Padrón-Nieves et al.. Initially, calibration curves for each strain, using increasing concentrations of KCl (0.5 to 75 mM), were performed in the late log growth phase Leishmania promastigotes in the presence of the potassium ionophore valinomycin. By this procedure, fluorescence values could be transformed into millivolts (mV), applying the Nernst equation, ΔΨp = −59.4 log(120/[KCl]). […] After 10 min of incubation in the dark, fluorescence was measured in a Victor^2 Wallac spectrofluorometer (Perkin Elmer, Turku, Finland), using the appropriate wavelengths (ex: 540 nm/em: 580 nm). […] Once the corresponding calibration curve for each strain was obtained, the effect of compounds on the ΔΨp was evaluated. […] After 10 min of incubation in the dark, fluorescence was measured, using the appropriate wavelengths (ex: 540 nm/em: 580 nm). […] To transform the fluorescence values in millivolts (mV), calibration curves were prepared using increasing concentrations of KCl (0.5, 1.15, 2.5, 5, 10, 20, 40, and 75 mM). […]

“Also recorded” adds a separate entry of the source.

As for `C=C(C)C1CCC2(C=NO)CCC3(C)C(CCC4C5(C)CCC(=NO)C(C)(C)C5CCC43C)C12` (stereo not shown) [Compound 18], the “Effect on plasma membrane potential (ΔΨp)” value is recorded as “significantly depolarized; also recorded: significantly depolarize the ΔΨp in all evaluated strains; also recorded: the collapse of the plasma membrane potential (ΔΨp) in a concentration-dependent way”.

(Values after publication PMC7913927, “Leishmanicidal Activity of Betulin Derivatives in Leishmania amazonensis; Effect on Plasma and Mitochondrial Membrane Potential, and Macrophage Nitric Oxide and Superoxide Production” (Microorganisms, 2021).)
